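At the GI50, growth is halved. At the TGI there is no net growth.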
Tests used:
Assay in all cases: growth of human tumour cells (NCI), 384-well format
OVCAR-4 ovarian = test system: OVCAR-4 ovarian
OVCAR-8 ovarian = test system: OVCAR-8 ovarian
HOP-92 NSCLC = test system: HOP-92 NSCLC
HOP-62 NSCLC = test system: HOP-62 NSCLC
NCI-H226 lung = test system: NCI-H226 lung
BT-549 breast = test system: BT-549 breast
OVCAR-3 ovarian = test system: OVCAR-3 ovarian
786-0 renal = test system: 786-0 renal
MALME-3M melanoma = test system: MALME-3M melanoma
NCI-H522 lung = test system: NCI-H522 lung
NCI-H322M lung = test system: NCI-H322M lung
SF-539 CNS = test system: SF-539 CNS
HT29 colon = test system: HT29 colon
SW-620 colon = test system: SW-620 colon
HCC-2998 colon = test system: HCC-2998 colon
LOX IMVI melanoma = test system: LOX IMVI melanoma
U251 glioblastoma = test system: U251 glioblastoma
ACHN renal = test system: ACHN renal
SN12C renal = test system: SN12C renal
HCT-116 colon = test system: HCT-116 colon
HCT-15 colon = test system: HCT-15 colon
SNB-75 CNS = test system: SNB-75 CNS
UACC-257 melanoma = test system: UACC-257 melanoma
TK-10 renal = test system: TK-10 renal
A498 renal = test system: A498 renal
MOLT-4 leukemia = test system: MOLT-4 leukemia
DU-145 prostate = test system: DU-145 prostate
SF-268 CNS = test system: SF-268 CNS

COc1cc(OC)c(C(=O)C(CN(C)C)CN(C)C)cc1OC
TGI (OVCAR-4 ovarian): 3.21 µM
GI50 (OVCAR-8 ovarian): 1.44 µM
TGI (OVCAR-8 ovarian): 2.84 µM
GI50 (HOP-92 NSCLC): 2.12 µM
TGI (HOP-92 NSCLC): 3.66 µM
GI50 (HOP-62 NSCLC): 22 µM
TGI (HOP-62 NSCLC): 36.6 µM
GI50 (NCI-H226 lung): 1.91 µM
TGI (NCI-H226 lung): 4.42 µM
GI50 (BT-549 breast): 3.06 µM
TGI (BT-549 breast): 8.06 µM
GI50 (OVCAR-3 ovarian): 1.71 µM
TGI (OVCAR-3 ovarian): 3.37 µM
GI50 (786-0 renal): 2.27 µM
TGI (786-0 renal): 4.92 µM
GI50 (MALME-3M melanoma): 0.999 µM
TGI (MALME-3M melanoma): 2.17 µM
GI50 (NCI-H522 lung): 0.382 µM
TGI (NCI-H522 lung): 1.57 µM
GI50 (NCI-H322M lung): 18.4 µM
TGI (NCI-H322M lung): 32.5 µM
GI50 (SF-539 CNS): 1.6 µM
TGI (SF-539 CNS): 3.06 µM
GI50 (HT29 colon): 3.42 µM
TGI (HT29 colon): 12.9 µM
GI50 (SW-620 colon): 1.14 µM
TGI (SW-620 colon): 2.44 µM
GI50 (HCC-2998 colon): 4.8 µM
TGI (HCC-2998 colon): 18.6 µM
GI50 (LOX IMVI melanoma): 6.55 µM
TGI (LOX IMVI melanoma): 19.9 µM
GI50 (U251 glioblastoma): 7.75 µM
TGI (U251 glioblastoma): 20 µM
GI50 (ACHN renal): 1.41 µM
TGI (ACHN renal): 2.74 µM
GI50 (SN12C renal): 1.81 µM
TGI (SN12C renal): 3.58 µM
GI50 (HCT-116 colon): 1.41 µM
TGI (HCT-116 colon): 2.82 µM
GI50 (HCT-15 colon): 1.49 µM
TGI (HCT-15 colon): 2.88 µM
GI50 (SNB-75 CNS): 19.8 µM
TGI (SNB-75 CNS): 34.1 µM
GI50 (UACC-257 melanoma): 1.41 µM
TGI (UACC-257 melanoma): 2.81 µM
GI50 (TK-10 renal): 1.54 µM
TGI (TK-10 renal): 3.04 µM
GI50 (A498 renal): 12.5 µM
TGI (A498 renal): 25.1 µM
GI50 (MOLT-4 leukemia): 0.225 µM
TGI (MOLT-4 leukemia): 0.591 µM
GI50 (DU-145 prostate): 4.56 µM
TGI (DU-145 prostate): 15 µM
GI50 (SF-268 CNS): 17.2 µM
TGI (SF-268 CNS): 31.1 µM

Reference: PubChem BioAssay (NCI)
